Reference: ChEMBL document CHEMBL3875189, “A benzo[b]thiophene-based selective type 4 S1P receptor agonist” (Bioorg Med Chem Lett, 2017)
Active and inactive are the calls of the source. The rule behind the calls is not given here.

Experiments:
[1] = target: T1, Sphingosine 1-phosphate receptor 5 (Homo sapiens, UniProt Q9H228); test: Agonist activity at recombinant human S1PR5 expressed in CHO cell membranes assessed as [35S]GTP-gammaS binding measured after 1.5 hrs by TopCount scintillation counting method
T1 sequence (Q9H228 whole entry): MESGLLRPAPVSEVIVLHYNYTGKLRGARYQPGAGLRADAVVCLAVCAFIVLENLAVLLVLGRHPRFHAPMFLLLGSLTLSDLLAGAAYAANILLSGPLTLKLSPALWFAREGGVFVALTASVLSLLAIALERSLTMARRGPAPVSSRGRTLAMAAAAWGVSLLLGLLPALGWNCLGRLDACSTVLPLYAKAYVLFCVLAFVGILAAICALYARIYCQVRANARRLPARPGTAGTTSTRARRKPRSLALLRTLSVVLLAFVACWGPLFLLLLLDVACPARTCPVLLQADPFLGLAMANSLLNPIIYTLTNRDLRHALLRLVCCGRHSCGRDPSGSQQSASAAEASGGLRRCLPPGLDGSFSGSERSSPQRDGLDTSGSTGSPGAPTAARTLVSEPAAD

[2] = target: T2, Sphingosine 1-phosphate receptor 4 (Homo sapiens, UniProt O95977); test: Agonist activity at recombinant human S1PR4 expressed in CHO cell membranes assessed as [35S]GTP-gammaS binding measured after 1.5 hrs by TopCount scintillation counting method
T2 sequence (O95977 whole entry): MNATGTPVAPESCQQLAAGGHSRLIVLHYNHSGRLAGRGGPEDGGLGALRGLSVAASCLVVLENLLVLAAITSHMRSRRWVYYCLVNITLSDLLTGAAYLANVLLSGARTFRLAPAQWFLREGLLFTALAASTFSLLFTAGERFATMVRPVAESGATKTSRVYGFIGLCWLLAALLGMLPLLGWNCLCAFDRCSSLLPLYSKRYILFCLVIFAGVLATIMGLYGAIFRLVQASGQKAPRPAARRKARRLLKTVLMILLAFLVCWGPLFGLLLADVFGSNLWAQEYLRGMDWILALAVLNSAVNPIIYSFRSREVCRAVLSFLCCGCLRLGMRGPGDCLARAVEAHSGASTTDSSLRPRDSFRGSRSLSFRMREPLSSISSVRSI

[3] = target: T1, Sphingosine 1-phosphate receptor 5; test: Agonist activity at recombinant human S1PR5 expressed in CHO cell membranes assessed as [35S]GTP-gammaS binding measured after 1.5 hrs by TopCount scintillation counting method relative to S1P
[4] = target: T3, Sphingosine 1-phosphate receptor 1 (Homo sapiens, UniProt P21453); test: Agonist activity at recombinant human S1PR1 expressed in CHO cell membranes assessed as [35S]GTP-gammaS binding measured after 1.5 hrs by TopCount scintillation counting method
T3 sequence (P21453 whole entry): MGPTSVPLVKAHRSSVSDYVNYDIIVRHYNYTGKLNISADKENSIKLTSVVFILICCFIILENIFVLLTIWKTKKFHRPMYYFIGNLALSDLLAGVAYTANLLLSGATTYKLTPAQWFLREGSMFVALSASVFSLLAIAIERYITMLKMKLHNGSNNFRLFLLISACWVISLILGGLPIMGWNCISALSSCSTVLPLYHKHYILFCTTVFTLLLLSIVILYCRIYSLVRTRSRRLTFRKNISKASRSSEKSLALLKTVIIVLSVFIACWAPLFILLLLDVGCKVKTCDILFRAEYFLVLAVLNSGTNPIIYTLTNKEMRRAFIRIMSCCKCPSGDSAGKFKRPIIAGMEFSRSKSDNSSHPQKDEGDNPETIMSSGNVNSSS

[5] = target: Sphingosine 1-phosphate receptor 2 (Homo sapiens, UniProt O95136); test: Agonist activity at recombinant human S1PR2 expressed in CHO cell membranes assessed as [35S]GTP-gammaS binding measured after 1.5 hrs by TopCount scintillation counting method
Chain of Sphingosine 1-phosphate receptor 2 (O95136 whole entry): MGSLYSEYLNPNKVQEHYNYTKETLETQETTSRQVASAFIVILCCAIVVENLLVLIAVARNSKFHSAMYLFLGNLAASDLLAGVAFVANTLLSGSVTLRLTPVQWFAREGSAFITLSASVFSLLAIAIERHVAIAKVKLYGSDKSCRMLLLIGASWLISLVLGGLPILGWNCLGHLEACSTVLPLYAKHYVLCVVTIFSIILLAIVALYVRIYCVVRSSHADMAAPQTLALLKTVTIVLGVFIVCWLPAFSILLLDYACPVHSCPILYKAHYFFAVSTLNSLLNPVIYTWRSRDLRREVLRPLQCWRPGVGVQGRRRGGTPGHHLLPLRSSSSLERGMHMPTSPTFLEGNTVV

[6] = target: Sphingosine 1-phosphate receptor 3 (Homo sapiens, UniProt Q99500); test: Agonist activity at recombinant human S1PR3 expressed in CHO cell membranes assessed as [35S]GTP-gammaS binding measured after 1.5 hrs by TopCount scintillation counting method
Chain of Sphingosine 1-phosphate receptor 3 (Q99500 whole entry): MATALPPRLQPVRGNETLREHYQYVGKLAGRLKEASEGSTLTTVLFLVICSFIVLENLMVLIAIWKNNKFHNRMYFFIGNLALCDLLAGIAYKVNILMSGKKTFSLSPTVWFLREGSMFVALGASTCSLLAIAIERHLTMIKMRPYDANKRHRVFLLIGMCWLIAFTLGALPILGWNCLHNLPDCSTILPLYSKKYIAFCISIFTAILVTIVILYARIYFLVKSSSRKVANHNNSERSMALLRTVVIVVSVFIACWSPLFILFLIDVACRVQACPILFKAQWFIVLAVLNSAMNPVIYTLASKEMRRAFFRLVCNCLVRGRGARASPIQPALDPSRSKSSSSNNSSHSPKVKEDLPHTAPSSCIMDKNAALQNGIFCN

[7] = target: T1, Sphingosine 1-phosphate receptor 5; test: Activation of human S1PR5 expressed in CHO cells assessed as suppression of forskolin-induced intracellular cAMP level at 1 to 10 uM measured after 15 mins by ELISA; type: functional, cell-based
[8] = target: T3, Sphingosine 1-phosphate receptor 1; test: Activation of human S1PR1 expressed in CHO cells assessed as suppression of forskolin-induced intracellular cAMP level at 1 to 10 uM measured after 15 mins by ELISA; type: functional, cell-based
[9] = target: T3, Sphingosine 1-phosphate receptor 1; test: Activation of human S1PR1 expressed in CHO cells assessed as ERK1/2 phosphorylation at 1 to 10 uM treated under serum-free condition post 1 day serum starvation measured after 10 to 30 mins by Western blot analysis; type: cell-based

| SMILES | EC50 [1] | EC50 [2] | Efficacy [3] | also measured |
| --- | --- | --- | --- | --- |
| CCc1ccccc1-c1cccc2sc(CNc3cccc(CC(=O)O)c3)cc12 | > 100000 nM | 470 nM | – | – |
| NC(CNCc1cc2c(-c3ccc4ccccc4c3)cccc2s1)C(=O)O (configuration not stated) | 329 nM | 1100 nM | 34% | – |
| CCc1ccccc1-c1cccc2sc(CNCC(N)C(=O)O)cc12 (configuration not stated) | > 100000 nM | 57600 nM | – | – |
| CCc1ccccc1-c1cccc2cc(CNCC(N)C(=O)O)sc12 (configuration not stated) | 1560 nM | 3100 nM | 25% | – |
| CCc1ccccc1-c1cccc2sc(CNCC(C)C(=O)O)cc12 (configuration not stated) | > 100000 nM | 10300 nM | – | – |
| O=C(O)CCNCc1cc2c(-c3ccc4ccccc4c3)cccc2s1 | 31 nM | 433 nM | 75% | EC50 [4]: > 100000 nM; EC50 [5]: > 100000 nM; EC50 [6]: > 100000 nM |
| CCc1ccccc1-c1cccc2sc(CNCCC(=O)O)cc12 | > 100000 nM | > 100000 nM | – | – |
| CC(CNCc1cc2cc(-c3ccc4ccccc4c3)ccc2s1)C(=O)O (configuration not stated) | 232 nM | 115 nM | 77% | – |
| O=C(O)C1CN(Cc2cc3cccc(-c4ccc5ccccc5c4)c3s2)C1 | 506 nM | > 100000 nM | 13% | – |
| CCc1ccccc1-c1cccc2cc(CNCc3ccc(C(=O)O)cc3)sc12 | > 100000 nM | > 100000 nM | – | – |
| O=C(O)CNCc1cc2c(-c3ccc4ccccc4c3)cccc2s1 | 51 nM | 640 nM | 47% | EC50 [4]: > 100000 nM; EC50 [5]: > 100000 nM; EC50 [6]: > 100000 nM |
| O=C(O)c1ccc(CNCc2cc3cc(-c4ccc5ccccc5c4)ccc3s2)cc1 | > 100000 nM | > 100000 nM | – | – |
| CCc1ccccc1-c1cccc2cc(CN3CC(C(=O)O)C3)sc12 | > 100000 nM | > 100000 nM | – | – |
| CCc1ccccc1-c1cccc2cc(CNCC(=O)O)sc12 | > 100000 nM | > 100000 nM | – | – |
| O=C(O)CCCNCc1cc2cccc(-c3ccc(C(F)(F)F)cc3)c2s1 | 552 nM | 1900 nM | 15% | – |
| CCc1ccccc1-c1cccc2cc(CNc3cccc(CC(=O)O)c3)sc12 | 3970 nM | 1190 nM | 36% | – |
| O=C(O)Cc1ccc(NCc2cc3cc(-c4ccc5ccccc5c4)ccc3s2)cc1 | > 100000 nM | > 100000 nM | – | – |
| CCc1ccccc1-c1cccc2sc(CNCc3ccc(C(=O)O)cc3)cc12 | 6700 nM | > 100000 nM | 11% | – |
| Cc1ccc(-c2cccc3cc(CNCCCC(=O)O)sc23)cc1 | 2810 nM | 19900 nM | 43% | – |

| SMILES | EC50 [1] | EC50 [2] | Efficacy [3] | also measured |
| --- | --- | --- | --- | --- |
| O=C(O)CCNCc1cc2cccc(-c3ccc4ccccc4c3)c2s1 | 280 nM | 187 nM | 36% | – |
| Cc1cccc(-c2cccc3cc(CNCCCC(=O)O)sc23)c1 | 10300 nM | 9250 nM | 25% | – |
| O=C(O)c1ccc(CNCc2cc3c(-c4ccc5ccccc5c4)cccc3s2)cc1 | 356 nM | > 100000 nM | 53% | EC50 [4]: > 100000 nM; EC50 [5]: > 100000 nM; EC50 [6]: > 100000 nM |
| CCc1ccccc1-c1cccc2sc(CNCCCC(=O)O)cc12 | > 100000 nM | 18300 nM | – | – |
| CC(CNCc1cc2cccc(-c3ccc4ccccc4c3)c2s1)C(=O)O (configuration not stated) | 887 nM | 1020 nM | 32% | – |
| CCc1ccccc1-c1cccc2cc(CNCC(C)C(=O)O)sc12 (configuration not stated) | 4220 nM | > 100000 nM | 10% | – |
| O=C(O)Cc1ccc(NCc2cc3cccc(-c4ccc5ccccc5c4)c3s2)cc1 | 4020 nM | 1430 nM | 32% | – |
| CCc1ccccc1-c1cccc2sc(CN3CC(C(=O)O)C3)cc12 | 21200 nM | > 100000 nM | 10% | – |
| O=C(O)CCCNCc1cc2cccc(-c3ccc4c(c3)OCO4)c2s1 | 3130 nM | 3920 nM | 26% | – |
| CCc1ccccc1-c1cccc2sc(CNCCCCC(=O)O)cc12 | > 100000 nM | 11100 nM | – | – |
| O=C(O)CCCNCc1cc2c(-c3ccc4ccccc4c3)cccc2s1 | 60 nM | 211 nM | 69% | EC50 [4]: > 100000 nM; EC50 [5]: > 100000 nM; EC50 [6]: > 100000 nM |
| O=C(O)CCCCNCc1cc2c(-c3ccc4ccccc4c3)cccc2s1 | 152 nM | 1080 nM | 47% | EC50 [4]: > 100000 nM; EC50 [5]: > 100000 nM; EC50 [6]: > 100000 nM |
| O=C(O)CCCNCc1cc2cccc(-c3ccc(-c4ccccc4)cc3)c2s1 | 6450 nM | 2060 nM | 10% | – |
| O=C(O)Cc1ccc(NCc2cc3c(-c4ccc5ccccc5c4)cccc3s2)cc1 | > 100000 nM | > 100000 nM | – | – |
| CC(C)(C)c1ccc(-c2cccc3cc(CNCCCC(=O)O)sc23)cc1 | 4690 nM | 5070 nM | 26% | – |
| CCc1ccccc1-c1cccc2cc(CNCCCCC(=O)O)sc12 | 2490 nM | > 100000 nM | 16% | – |
| COc1ccc2cc(-c3cccc4cc(CNCCCC(=O)O)sc34)ccc2c1 | > 100000 nM | 1930 nM | – | – |
| O=C(O)CCNCc1cc2cc(-c3ccc4ccccc4c3)ccc2s1 | 25 nM | 38 nM | 78% | – |
| O=C(O)C1CN(Cc2cc3cc(-c4ccc5ccccc5c4)ccc3s2)C1 | 22 nM | > 100000 nM | 50% | Activity [7]: Active; Activity [8]: Active; EC50 [4]: > 100000 nM; EC50 [5]: > 100000 nM; EC50 [6]: > 100000 nM; Activity [9]: Active |

The next lines start with results.

| EC50 [1] | EC50 [2] | Efficacy [3] | SMILES | also measured |
| --- | --- | --- | --- | --- |
| 709 nM | 724 nM | 54% | O=C(O)CCCCNCc1cc2cc(-c3ccc4ccccc4c3)ccc2s1 | – |
| 2140 nM | – | 23% | O=C(O)Cc1cccc(NCc2cc3c(-c4ccc5ccccc5c4)cccc3s2)c1 | – |
| 175 nM | 1010 nM | 14% | O=C(O)C1CN(Cc2cc3c(-c4ccc5ccccc5c4)cccc3s2)C1 | – |
| 2590 nM | > 100000 nM | 15% | CCc1ccccc1-c1cccc2cc(CNCCC(=O)O)sc12 | – |
| 728 nM | 541 nM | 69% | NC(CNCc1cc2cc(-c3ccc4ccccc4c3)ccc2s1)C(=O)O (configuration not stated) | – |
| > 100000 nM | > 100000 nM | – | CCc1ccccc1-c1cccc2cc(CNCCCC(=O)O)sc12 | – |
| 412 nM | 410 nM | 37% | O=C(O)CCCCNCc1cc2cccc(-c3ccc4ccccc4c3)c2s1 | – |
| 49 nM | 331 nM | 18% | O=C(O)CCCNCc1cc2cccc(-c3cccc(-c4ccccc4)c3)c2s1 | – |
| 769 nM | > 100000 nM | 12% | O=C(O)Cc1cccc(NCc2cc3cc(-c4ccc5ccccc5c4)ccc3s2)c1 | – |
| 4510 nM | > 100000 nM | 23% | O=C(O)c1ccc(CNCc2cc3cccc(-c4ccc5ccccc5c4)c3s2)cc1 | – |
| 1070 nM | 694 nM | 35% | NC(CNCc1cc2cccc(-c3ccc4ccccc4c3)c2s1)C(=O)O (configuration not stated) | – |
| > 100000 nM | > 100000 nM | – | CCc1ccccc1-c1cccc2sc(CNCC(=O)O)cc12 | – |
| 3540 nM | 13500 nM | 7% | Cc1ccccc1-c1cccc2cc(CNCCCC(=O)O)sc12 | – |
| 350 nM | 350 nM | 63% | O=C(O)CNCc1cc2cc(-c3ccc4ccccc4c3)ccc2s1 | – |
| 143 nM | 165 nM | 65% | O=C(O)CCCNCc1cc2cc(-c3ccc4ccccc4c3)ccc2s1 | – |
| 1670 nM | 816 nM | 22% | O=C(O)Cc1cccc(NCc2cc3cccc(-c4ccc5ccccc5c4)c3s2)c1 | – |
| 2320 nM | 1980 nM | 25% | O=C(O)CCCNCc1cc2cccc(-c3cccc4ccccc34)c2s1 | – |
| 3070 nM | 693 nM | 39% | O=C(O)CCCNCc1cc2cccc(-c3cccc(C(F)(F)F)c3)c2s1 | – |
| 4770 nM | 2570 nM | 9% | CCc1ccccc1-c1cccc2sc(CNc3ccc(CC(=O)O)cc3)cc12 | – |
| 2100 nM | 3410 nM | 20% | CCc1ccccc1-c1cccc2cc(CNc3ccc(CC(=O)O)cc3)sc12 | – |
| 272 nM | 1480 nM | 32% | O=C(O)CNCc1cc2cccc(-c3ccc4ccccc4c3)c2s1 | – |
